# From patent US20160088853A1, “Ultraviolet Disinfection of Produce, Liquids and Surfaces” (DREXEL UNIVERSITY, priority 2013, published 2016)
# Read-outs that look alike come from different tables or passages of the source.
# Columns and labels:
# [1] = Solution absorbance at 254 nm; type: physicochemical
# [2] = for change in relative fluorescence intensity: 12 minutes of UV exposure; for fluorescence decay rate constant: 1 μM fluorescein, UV
# Protocol: In this example, fluorescein dye was used to detect the presence of free radicals, since interactions of oxidizing free radicals with fluorescein quench the fluorescence signal intensity. A fluorescein dye solution (4 μg/L) containing 0.4% (w/v) fructose and a fluorescein dye solution (4 μg/L) without fructose (control) were exposed to UV radiation at wavelength of 254 nm.
# A batch-UV processing unit (Spectronics Spectrolinker XL-1500 UV Crosslinker, Westbury, N.Y.) was used for Examples 5-10. The apparatus consisted of 5 UV lamps (254 nm, 15 W, Spectronics Corporation, Westbury, N.Y.) that generated a UV intensity of approximately 20 mW/cm^2 at the surface of exposure mounted within a shielded box (46.4×15.9×31.8 cm). Fluorescence intensity measurement noise was minimized by allowing the lamps to warm up for at least 15 minutes prior to taking measurements.
# The test fluorescein solution with approximately 1 μM fluorescein was prepared in deionized water (pH 6.3) or 100 mM buffer at pH 6. […] Specifically, treatments were carried out by adding a 10.0 ml solution into an uncovered glass petri dish and exposing it to UV radiation for various amounts of time (0-12 minutes) in the UV processing unit. The samples in the petri dish were stirred to achieve uniform exposure to UV light. Ambient room temperature (20-22° C.) was used for the treatments. To measure the fluorescence intensity of the solution, at each time interval, 100 μl of the sample was pipetted from the petri dish into a well of a 96-well plate optimized for fluorescence measurement. Fluorescence was measured in a Gemini XPS fluorescence micro-plate reader (Molecular Devices, Sunnyvale, Calif.) with excitation and emission wavelengths of 485 nm and 510 nm, respectively. All the fluorescence values were normalized using Eq. (1):
# where I0=fluorescence intensity at time t=0 minutes and It=fluorescence intensity after ‘t’ minutes of UV exposure.
# E. coli BL-21 = assay: UV inactivation of E. coli BL-21 suspension, plate count; type: cell-based; details: 1% (w/v) gallic acid, UV 10 seconds, 109 CFU/mL in phosphate buffer, FIG. 6
# Protocol: E. coli BL-21 was suspended in phosphate buffer at the level of 10^9 CFU/mL. Gallic acid was incorporated into bacterial suspension at the level of 1% (w/v). This suspension was exposed to UV light (intensity of 4 mJ/cm^2) for 10 seconds. The control experiment was performed in the exact same manner except for addition of gallic acid. After UV treatment, the cells were separated from the buffer through centrifugation and bacterial inactivation was measured using a plate count technique.
# [3] = in the presence of fructose, model apple juice system; cited from earlier work
# E. coli 0157:H7 = details: in lettuce; cited from earlier work
# [4] = test system: bacterial and fungal strains; details: riboflavin with UV 365 nm, artificial surface; cited from earlier work
molecule,measurement,setting,value
"c1ccoc1 [furan, reference compound]",average absorbance at 254 nm,[1]; 132 μM,less than 0.001
same,change in relative fluorescence intensity,[2]; 33 μM furan,< 20%
same,change in relative fluorescence intensity,[2]; 66 μM furan,< 20%
"O=C(O)c1cc(O)c(O)c(O)c1 [gallic acid, 3,4,5-trihydroxybenzoic acid]",microbial count after exposure to UV light,E. coli BL-21,undetectable
O=C(CO)[C@@H](O)[C@H](O)[C@H](O)CO [fructose],UV induced rate of degradation of patulin,[3],increased
same,average absorbance at 254 nm,[1]; 500 mM solution,0.12
same,fluorescence decay rate constant,[2]; 10 mM fructose,0.16 ± 0.01 min⁻¹
same,fluorescence decay rate constant,[2]; 20 mM fructose,0.27 ± 0.02 min⁻¹
same,fluorescence decay rate constant,[2]; 100 mM fructose,0.91 ± 0.02 min⁻¹
same,fluorescence decay rate constant,[2]; 300 mM fructose,2.1 ± 0.06 min⁻¹
same,fluorescence decay rate constant,[2]; 500 mM fructose,2.4 ± 0.13 min⁻¹
same,fluorescence lost,"[2]; 500 mM fructose, within 2 minutes of UV exposure, FIG. 10A",more than 90%
Acidified sodium chlorite,reduction of E. coli 0157:H7,E. coli 0157:H7,≤ 5 log
Cc1cc2nc3c(=O)[nH]c(=O)nc-3n(C[C@H](O)[C@H](O)[C@H](O)CO)c2cc1C [Riboflavin],inactivation of bacterial and fungal strains,[4],effective in inactivating most of the bacterial and fungal strains
